We go through 7 compounds from patent US20230399327A1, “HIGH ACTIVITY HPK1 KINASE INHIBITOR” (ADLAI NORTYE BIOPHARMA CO., LTD., priority 2020, published 2023).

For one assay, the system named is DC2.4 cells. The experiment in a line: DC2.4 IL-6 ELISA assay (IL-6 secretion after LPS). Type of assay: cell-based, mouse. Conditions: highest signal vs 0.1% DMSO, 24 h. Here is the method: Test Example 4: Detection of Compound's Activating Ability to Stimulate DC2.4 Cells to Secrete Cytokine Interleukin-6 (IL-6) ([…])
The specific operation is as follows: the compound powder was dissolved in DMSO to 10 mM, 2 μl of the compound was added to 998 μl of RPMI 1640 medium (contained 10% FBS in this test), and the highest concentration point was obtained after vortexing. The compound solution was gradually diluted 3 times with 0.2% DMSO medium, with a total of 8 concentration points. That treated with RPMI 1640 medium solution containing 0.1% DMSO was used as a control. Add 10^5 DC2.4 cells to each well of Corning 96-well cell culture plate (product number: 3599), then add an equal volume of compound dilution, add RPMI 1640 medium containing 0.2% DMSO to the control group, and place the cells at 37° C. to incubate for 1 h in an incubator (Thermo Fisher Scientific, model: 3111). Subsequently, LPS was added at a final concentration of 3.2 ng/ml, and placed in a cell culture incubator at 37° C. for 24 hours. Mouse IL-6 DuoSet ELISA KIT was used to detect the IL-6 content in the cell supernatant, and the Mouse […] DuoSet ELISA detection was carried out according to the operating instructions of the kit. Data are described as the highest fold ratio of the stimulated signal of the compound to the signal of 0.1% DMSO.

For another assay, the system named is mouse spleen cells. Nature of the assay: Spleen IL-2 ELISA assay (IL-2 secretion after Concanavalin A). Type of assay: cell-based, mouse (C57BL/6). The note with it: highest signal vs 0.1% DMSO, ConA, 24 h. Here is the method: Test Example 3: Detection of Compound's Activating Ability to Secrete Cytokine Interleukin-2 (IL-2) from Mouse Spleen Cells (Method 3)
The specific operation is as follows: the compound powder was dissolved in DMSO to 10 mM, 2 μl of the compound was added to 998 μl of RPMI 1640 medium (contained 10% FBS in this test), and the highest concentration point was obtained after vortexing. The compound solution was gradually diluted 3 times with 0.2% DMSO medium, with a total of 8 concentration points. That treated with RPMI 1640 medium solution containing 0.1% DMSO was used as a control. Add 10^5 mouse spleen cells to each well of Corning 96-well cell culture plate (product number: 3599), then add an equal volume of compound dilution, add RPMI 1640 medium containing 0.2% DMSO to the control group, and place the cells at 37° C. to incubate for 1 h in a cell culture incubator (Thermo Fisher Scientific, model: 3111). Then add Concanavalin A at a final concentration of 0.4 μg/ml and place in a cell culture incubator at 37° C. for 24 hours. Mouse IL-2 DuoSet ELISA KIT was used to detect the IL-2 content in the cell supernatant, and the Mouse […] DuoSet ELISA detection was carried out according to the operating instructions of the kit. Data are described as the highest fold ratio of the stimulated signal of the compound to the signal of 0.1% DMSO.

For a further assay, the system named is PBMC. The experiment in a line: PBMC IL-2 ELISA assay (IL-2 secretion after anti-CD3/anti-CD28). Type of assay: cell-based, human. Conditions: highest signal vs 0.1% DMSO, anti-CD3/CD28, 24 h. The method, then:
Test Example 5: Detection of Compound's Activating Ability to Secrete Cytokine Interleukin-2 (IL-2) from PBMC (Method 5)
The specific operation is as follows: the compound powder was dissolved in DMSO to 10 mM, 2 μl of the compound was added to 998 μl of RPMI 1640 medium (contained 10% FBS in this test), and the highest concentration point was obtained after vortexing. The compound solution was gradually diluted 3 times with 0.2% DMSO medium, with a total of 8 concentration points. That treated with RPMI 1640 medium solution containing 0.1% DMSO was used as a control. 1×10˜ 5 PBMC cells were added to each well of Corning 96-well cell culture plate (item number: 3599), and then the same volume of compound diluent was added to the control group. RPMI 1640 medium containing 0.2% DMSO was added to the control group and incubated in a 37° C. cell incubator (Thermo Fisher Scientific, model: 3111) for 1 hour. Then add Anti-human CD3 Antibody and 1 μg/ml Anti-human CD28 Antibody at a final concentration of 0.1 μg/ml, and place in a 37° C. cell culture incubator to incubate for 24 hours. The Human IL-2 DuoSet ELISA KIT was used to detect the IL-2 content in the cell supernatant, and the Human IL-2 DuoSet ELISA detection was performed according to the operating instructions of the kit. Data are described as the highest fold ratio of the stimulated signal of the compound to the signal of 0.1% DMSO.
On the technique in general: In an ELISA, binding on a coated surface is turned into a signal by an enzyme label.

A further assay addresses HPK1 kinase (Homo sapiens (Human), UniProt Q92918). Nature of the assay: HPK1 kinase activity inhibition (ADP-Glo Kinase Assay). Type of assay: biochemical. The note with it: HPK1, MBP substrate, ATP, 25° C. 60 min. Put shortly: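 HPK1 (diluted to 30 nM before addition) preincubated 20 min at 25 °C with compound (8-point, 5-fold series) in MOPS pH 7.2 buffer with MgCl2, EDTA, EGTA, DTT. Reaction started with substrate solution of 10 μM MBP and 20 μM ATP, run 60 min at 25 °C; ADP-Glo luminescence, IC50 reported.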
A general note: ADP-Glo turns the ADP formed in a reaction into a luminescent signal.

[1] abbreviates: at compound concentration 10 μM.
Setting [2] is: at compound concentration 0.37 μM.
The mark [3] stands for this setting: at compound concentration 1.1 μM.
The mark [4] stands for this setting: at compound concentration 1.11 μM.
The mark [5] stands for this setting: at compound concentration 3.3 μM.

Sequence of HPK1 kinase (Q92918 whole entry): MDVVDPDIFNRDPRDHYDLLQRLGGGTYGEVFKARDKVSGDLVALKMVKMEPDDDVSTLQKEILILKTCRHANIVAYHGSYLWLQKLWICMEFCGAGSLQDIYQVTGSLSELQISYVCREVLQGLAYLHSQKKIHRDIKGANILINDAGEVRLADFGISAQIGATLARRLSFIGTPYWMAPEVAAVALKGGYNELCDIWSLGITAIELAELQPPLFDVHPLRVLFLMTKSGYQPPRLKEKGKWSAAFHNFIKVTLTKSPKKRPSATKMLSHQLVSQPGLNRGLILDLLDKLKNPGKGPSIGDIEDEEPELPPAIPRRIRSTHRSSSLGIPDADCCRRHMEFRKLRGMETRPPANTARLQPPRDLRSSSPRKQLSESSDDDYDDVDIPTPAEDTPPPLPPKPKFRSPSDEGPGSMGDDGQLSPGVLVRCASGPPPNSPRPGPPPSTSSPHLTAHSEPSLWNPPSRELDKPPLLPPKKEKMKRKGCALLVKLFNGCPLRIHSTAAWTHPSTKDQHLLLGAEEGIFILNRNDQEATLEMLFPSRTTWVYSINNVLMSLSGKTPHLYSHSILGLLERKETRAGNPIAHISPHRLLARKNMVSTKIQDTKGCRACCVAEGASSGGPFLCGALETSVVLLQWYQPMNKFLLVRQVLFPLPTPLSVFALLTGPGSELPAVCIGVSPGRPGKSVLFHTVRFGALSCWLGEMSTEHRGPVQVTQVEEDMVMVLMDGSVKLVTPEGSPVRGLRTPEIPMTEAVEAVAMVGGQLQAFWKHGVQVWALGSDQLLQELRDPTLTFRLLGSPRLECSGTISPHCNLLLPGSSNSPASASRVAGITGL

Take “3-((8-(3,3-difluoropyrrolidin-1-yl)pyrido[3,4-d]pyrimidin-2-yl)amino)-1,6-dimethyl-5,6, 7,8-tetrahydro-1,6-naphthyridin-2(1H)-one [Example 85]”: the “% IL-6 increased (relative to DMSO control)” value with DC2.4 cells (setting [1]) worked out at 305.00%. Also, the entries for the “% IL-2 increased (relative to DMSO control)” value in the assay with mouse spleen cells (setting [1]) and with PBMC (setting [1]) were 260% and 339%, respectively. On HPK1 kinase, this compound displayed a half-maximal inhibitory concentration (IC50) of 25.3 nM.
`COc1nc2c(cc1Nc1ncc3ccnc(N[C@@H](CO)C(C)C)c3n1)CN(C)CC2` [Example 92]: the “% IL-6 increased (relative to DMSO control)” value in the assay with DC2.4 cells (setting [2]) stood at 546.00%. In addition, the “% IL-2 increased (relative to DMSO control)” value came to 160% in the assay with mouse spleen cells (setting [2]) and 182% in the assay on PBMC (setting [2]). This compound registered an IC50 against HPK1 kinase of 0.23 nM.
`COc1nc2c(cc1Nc1ncc3ccnc(N[C@@H]4CCC[C@H]4O)c3n1)CN(C)CC2` [Example 99]: the “% IL-6 increased (relative to DMSO control)” value in the assay with DC2.4 cells (setting [1]) is reported as 526.00%. Further, in the assay on PBMC (setting [3]), the “% IL-2 increased (relative to DMSO control)” value came to 236%. The same compound returned an IC50 against HPK1 kinase of less than 0.1 nM.
With `COc1nc2c(cc1Nc1ncc3ccnc(N[C@@H]4CC[C@@H](O)C4)c3n1)CN(C)CC2` [Example 100], the “% IL-6 increased (relative to DMSO control)” value in the assay with DC2.4 cells (setting [4]) turned out to be 623.00%. Moreover, the “% IL-2 increased (relative to DMSO control)” value is recorded as 190% in the assay on mouse spleen cells (setting [5]) and 239% with PBMC (setting [2]). In addition, the IC50 against HPK1 kinase was less than 0.1 nM.
For the compound `COc1nc2c(cc1Nc1ncc3ccnc(N[C@@H]4CCC[C@@H]4O)c3n1)CN(C)CC2` [Example 102], the “% IL-6 increased (relative to DMSO control)” value in the assay on DC2.4 cells (setting [4]) was 553.00%. Moreover, the “% IL-2 increased (relative to DMSO control)” value in the assay with mouse spleen cells (setting [5]) came to 180%. The compound further yielded a half-maximal inhibitory concentration (IC50) against HPK1 kinase of less than 0.1 nM.
As to `COc1nc2c(cc1Nc1ncc3ccnc(N[C@H]4CCC[C@H]4O)c3n1)CN(C)CC2` [Example 104], in the assay with DC2.4 cells (setting [4]), the “% IL-6 increased (relative to DMSO control)” value is on record as 341.00%. In addition, the figures for the “% IL-2 increased (relative to DMSO control)” value in the assay on mouse spleen cells (at compound concentration 0.0046 μM) and with PBMC (setting [2]) were 120% and 139%, respectively. Further, the half-inhibitory concentration (IC50) at HPK1 kinase is less than 0.1 nM.
For the compound `COc1nc2c(cc1Nc1ncc3ccnc(N[C@H]4CCC[C@@H]4O)c3n1)CN(C)CC2` [Example 105], in the assay with DC2.4 cells (setting [4]), the “% IL-6 increased (relative to DMSO control)” value was determined as 321.00%. For the same compound, the “% IL-2 increased (relative to DMSO control)” value is 170% in the assay on mouse spleen cells (setting [3]) and 176% in the assay with PBMC (setting [3]). For the same compound, the IC50 against HPK1 kinase is less than 0.1 nM.

The IC50 is the concentration that inhibits the measured activity by half. Read a low IC50 as greater potency.
